Columns and labels:
[1] = tested on: Panc-1 human pancreatic cancer cells; assay: cancer cell adhesion, visual retraction of cells; type: cell-based; details: 24 hours, light microscopy
Description: (§1) In these experiments, Panc-1 human pancreatic cancer cells were maintained in Dulbecco's minimum essential medium supplemented with 10% fetal calf serum at 37° C. in 5% CO2 in air. All culture reagents were purchased from Invitrogen (Burlington, ON). Panc-1 cells (ATCC CRL-1469) were plated at 20,000 cells per well of a 4-well tissue culture slide (NalgeNunc, Naperville, Ill.). After 24 hours of culture, cells were treated for 24 hours with medium containing varying concentrations of compounds 15 and 16 dissolved in dimethylsulfoxide (DMSO; final concentration of 1% DMSO in the medium), or 1% DMSO alone in the medium and then fixed with 4% paraformaldehyde dissolved in phosphate buffered saline and stained with hematoxylin. Disruption of cell adhesion was determined visually within 24 hours, by observing retraction of the cells from one another.

[2] = tested on: Panc-1 human pancreatic cancer cells; assay: cell death, trypan blue exclusion count; type: cell-based; details: 24 hours
Description: as §1
In order to determine the effect of the compounds on cell death, the medium was aspirated from the treated and untreated cultures and the non-adherent cells collected by centrifugation (1000 rpm for 5 min). The cells were resuspended in phosphate buffered saline and combined with trypan blue (Sigma). Cells were then put in a hemocytometer and the number of cells that excluded the trypan blue counted using a microscope to determine the number of live cells.

[3] = tested on: 3D spheroid N-cadherin mouse fibroblast (LN5) cells; assay: hanging drop 3D spheroid cell culture assay; type: cell-based; details: hanging drops incubated 48 h
Description: In these experiments, a total of 2×10^6 originally noncohesive embryonic mouse L929 fibroblasts (L cells) were transfected by electroporation in 400 μl transfection medium (RPMI 1640, 1% dextrose, 1 mM β-mercaptoethanol) with 40 μg pMiwcN chicken N-cadherin expression vector (Miyatani, S., et al., Science, 1989, 245, 631-635; Fujimori T., et al., Development, 1990, 110. 97-104). Neomycin resistance (pwlneo, GIBCO) was included for G418 selection. Transfected cells were diluted 1/100 and placed in medium containing 800 μg/ml G418 (GIBCO). Resistant cells were grown to confluence, detached by trypsin/Ca^2+ treatment, and stained with an anti-chicken N-cadherin antibody (NCD2, Zymed) on ice for 45 min. After several washes in Hanks' balanced salt solution, cells were mixed with a fluorescein isothiocyanate-conjugated secondary antibody and placed on ice for 30 min. N-cadherin-expressing cells were then autocloned into 96-well plates by using the CloneCyt Integrated Deposition System (Becton-Dickinson Immunocytometry Systems). Positive clones were reanalyzed by FACS and the L cell line LN5 was propagated for these studies.
The 3D spheroids were generated as follows. Cells were removed from near-confluent plates with TC (0.05% trypsin and 2 mM Ca^2+ in Hank's solution for 5-10 minutes), washed once with 1 mL 4° C. Hank's solution, and suspended at a concentration of 2.5×10^6 cells/ml in complete MEM supplemented with 2 mM CaCl2 and varying concentrations of N-cadherin antagonists (Crocus Laboratories, Montreal, Quebec, Canada). The antagonists were compound 15 (MW=499.43) and compound 16 (MW=499.43). Stock solutions of the antagonists were prepared by dissolving the antagonists in DMSO at concentrations of 30 mM. Controls were made by suspending the cells as described above in the absence of antagonists with only the respective amount of DMSO added. Drops of the cell suspensions (10 microliters each) were deposited on the underside of a 10 cm tissue culture dish lid. The lid was then inverted and placed on dish containing 5 ml of PBS for hydration. Hanging drops were incubated under tissue culture conditions for 48 h, allowing the cells to coalesce at the base of the droplets and to form multi-layer aggregates. The tissue culture dish lid was then removed and the medium was gently aspirated. Aggregates (N=10-20) where then photographed under 4× lens and cell area was analyzed using ImageJ. Statistical differences were determined using ANOVA and Tukey's multiple comparison test.
Each of the antagonists tested from Crocus Laboratories contained cadherin antagonist properties at different potency levels. We determined the approximate minimum concentration needed for an anti-adhesion dose response on 3D spheroid N-cadherin mouse fibroblast (LN5) cells. […]

[4] = tested on: female mice; assay: ovulation / corpus luteum formation in hormone-stimulated mice; type: in vivo, mouse; details: 50 mg/kg i.p. twice per day
Description: In these experiments, two groups of female mice (n=6 per group) were injected i.p. (50 μL per injection) twice per day with either vehicle control (saline containing 7.5% DMSO) or vehicle containing compound 15 (50 mg/kg) at the days indicated in FIG. 10. The mice were injected with hormones to stimulate ovulation. FIG. 10 is a schematic showing the injection of hormones into mice to cause follicle maturation and injection of compound 15.

[5] = tested on: Myeloma cells MM.1S; assay: multiple myeloma cell viability, high content screening of live cells; type: cell-based; details: 24 h post-treatment
Description: Myeloma cells MM.1S (American Type Culture Collection, Manassas, Va., USA) were cultured in RPMI-1640 medium supplemented with 10% fetal bovine serum (Thermo Fisher Scientific, Waltham, Mass., USA), 100 U/mL of penicillin, and […] of streptomycin. The cells were grown at 37° C. in a humidified incubator with 5% CO2.
In these experiments, MM.1S cells were pre-labeled with CellTrace Violate (Thermo Fisher Scientific), plated on 96-well plates (1.5×10^5 cells/well) and treated with varying concentrations of compound 15 (1-100 μM) or DMSO (vehicle control). High content screening (CellInsight CX5, Thermo Fisher Scientific) was utilized to quantify the number of live cells (i.e. calcein AM+ cells) 24 h post-treatment. FIG. 13 presents photomicrographs (upper panel) and quantitative data (lower panel) of cells treated with compound 15.

[6] = tested on: cerebellar neurons on 3T3 fibroblasts that express N-cadherin; assay: neurite outgrowth assay; type: cell-based, mouse; details: 10 micromolar; 18 hours culture
Description: Within a representative neurite outgrowth assay, neurons are cultured on a monolayer of cells (e.g., 3T3 fibroblasts) that express N-cadherin. […] For example, neurons can be cultured on monolayers of 3T3 cells transfected with cDNA encoding N-cadherin essentially as described by Doherty, P. and Walsh, F. S., Curr. Op. Neurobiol. 4:49-55, 1994; Williams, E. J., et al., Neuron 13:583-594, 1994; Hall, H., et al., Cell Adhesion and Commun. 3:441-450, 1996; Doherty, P. and Walsh, F. S., Mol. Cell. Neurosci. 8:99-111, 1994; and Safell, J. L., et al., Neuron 18:231-242, 1997. Briefly, monolayers of control 3T3 fibroblasts and 3T3 fibroblasts that express N-cadherin are established by overnight culture of 80,000 cells in individual wells of an 8-chamber well tissue culture slide. 3000 cerebellar neurons isolated from post-natal day 3 mouse brains are cultured for 18 hours on the various monolayers in control media (SATO/2% FCS), or media supplemented with various concentrations of the modulating agent. The cultures are then fixed and stained for GAP43 which specifically binds to the neurons and their neurites. The length of the longest neurite on each GAP43 positive neuron is measured by computer assisted morphometry.

[7] = tested on: 5TGM1 mouse MM plasma cells; assay: C57BL/KaLwRij murine model of Multiple Myeloma, tumor burden; type: in vivo; details: 50 mg/kg/day i.p. for 5 days; assessed at days 14, 21 and 28
Description: In these experiments, 5TGM1 mouse MM plasma cells (expressing a dual GFP and luciferase reporter construct (Noll Neoplasia 2014; Cheong 2015)) were maintained in Iscove's modified Dulbecco's medium (IMDM) with 20% fetal calf serum (FCS; Thermo Fisher Scientific, Waltham, Mass., USA) and supplements.
C57Bl/KaLwRij mice (aged 6-8 weeks) were used for all in vivo studies. For MM tumor studies, mice were inoculated with 5×10^5 5 TGM1 cells in 100 μl phosphate buffered saline by intravenous injection (i.v.) via the tail vein. Total body tumor burden was assessed at days 14, 21 and 28 using the Xenogen IVIS, as previously described (Mrozik, K. M., et al., 2015, Br. J. Haematol. 171, 387-399.). All animals used for therapy studies were randomized by age, sex and, where appropriate, tumor burden. Compound 15 was dissolved at a concentration of 10 mg/ml in saline containing 40% 2-hydroxyproprol-β-cyclodextrin. Either compound 15 (50 mg/kg/day) (N=8) or vehicle (40% 2-hydroxyproprol-β-cyclodextrin in saline) (N=7) alone was administered to mice i.p. commencing 15 minutes prior to 5TGM1 cell injection for 5 days. […] Compound 15 is therefore effective for treatment of MM.

[8] = tested on: human fibroblast-like synoviocytes (FLS); assay: fibroblast-like synoviocyte cell adhesion; type: cell-based; details: 24 hours treatment
Description: In these experiments, human fibroblast-like synoviocytes (FLS) (ScienCell Research Laboratories (Carlsbad, Calif.; Cat #4700) were maintained in complete Synoviocyte media (ScienCell Research Laboratories Carlsbad, Calif. Cat #4701) at 37° C. in 5% CO2 in air. FLS cells were plated at 1.5×10^4 cells per well of a 4-well tissue culture slide (NalgeNunc, Naperville, Ill.). After 24 hours of culture, cells were treated for 24 hours with medium containing varying concentrations of compounds 15 dissolved in dimethylsulfoxide (DMSO; final concentration of 1% DMSO in the medium), or 1% DMSO alone in the medium. The cells were then fixed with 4% paraformaldehyde dissolved in phosphate buffered saline and stained with hematoxylin. Disruption of cell adhesion was determined visually within 24 hours, by observing retraction of the cells from one another.

[9] = tested on: classical cadherin-expressing cells; assay: cell adhesion assay, classical cadherin mediated cell adhesion; type: cell-based; details: 1 micromolar; determined visually within 24 hours
Description: In these experiments, classical cadherin-expressing cells are plated under standard conditions that, in the absence of cell adhesion antagonist, permit cell adhesion. Disruption of cell adhesion is determined visually within 24 hours, by observing retraction of the cells from one another.

[10] = tested on: human cancer-associated fibroblast (CAF010415); assay: cancer-associated fibroblast viability, CELLTITER GLO; type: cell-based; details: in vitro; measured after 24 h and 48 h
Description: In this study, CAFs were isolated as described by Orr et al, (On, B., et al., Oncogene, 31, 1130-1142, 2012). The cells were grown in Dulbecco's modified Eagle medium (Multicell) with 10% fetal bovine serum. CAFs are human primary fibroblasts, grown from patient prostate tumor samples. These cells are not an established cell line, nor are they immortalized, and at some point they will senesce.
In these experiments, cells were seeded in a 96-well plate (Corning) (3,000 cells/well). The next day, the drug was added at the indicated concentration (FIG. 8). After 24 h and 48 h cell viability was measured using CELLTITER GLO® (Promega, Madison, Wis.) according to the manufacturer's protocol. All assays were repeated at least 3 times in triplicate each time. The results are depicted in FIG. 8 as SEM. […] The N-cadherin antagonist compound 15 thus decreases the viability of human pancreatic cancer (PC) cells and CAFs. These observations indicate that N-cadherin antagonists can be used to treat PC.

Structure (SMILES) | disruption of cell adhesion ([1]; 0.1 μM) | disruption of cell adhesion ([1]; 1 μM) | disruption of cell adhesion ([1]; 10 μM) | disruption of cell adhesion ([1]; 100 μM) | cell death in comparison to the control ([2]; 1 μM) | cell death in comparison to the control ([2]; 10 μM) | cell death in comparison to the control ([2]; 100 μM) | concentration at which complete disruption occurred [3] | minimum concentration required to observe cohesion disruption [3] | corpus luteum formation (luteinized CL-like structures in ovaries) [4] | ovulation [4] | number of live cells (calcein AM+) on the substratum ([5]; 10 μM) | number of live cells (calcein AM+) on the substratum ([5]; 100 μM) | decrease in the mean neurite length relative to the length in the absence of modulating agent [6] | total body tumour burden [7] | concentration range in which effects on FLS cells (disruption of cell adhesion) can be seen [8] | disruption of cell adhesion (retraction of the cells from one another) [9] | cell viability [10]
COc1ccc(OC[C@@H](O)CNC2CCN(C[C@@H](O)COc3ccc(Cl)c(Cl)c3)CC2)cc1 [Compound 16, (R)-1-(3,4-Dichlorophenoxy)-3-(4-((S)-2-hydroxy-3-(4-methoxyphenoxy)propylamino)piperidin-1-yl)propan-2-ol] | disrupted cell adhesion | disrupted cell adhesion | disrupted cell adhesion | disrupted cell adhesion | caused cell death | caused cell death | caused cell death | 75 µM | 50 µM |  |  |  |  |  |  |  |  | 
COc1ccc(OC[C@@H](O)CNC2CCN(C[C@H](O)COc3ccc(Cl)c(Cl)c3)CC2)cc1 [Compound 15, (S)-1-(3,4-Dichlorophenoxy)-3-(4-((S)-2-hydroxy-3-(4-methoxyphenoxy)propylamino)piperidin-1-yl)propan-2-ol] | not disrupted | disrupted cell adhesion | disrupted cell adhesion | disrupted cell adhesion |  | caused cell death | caused cell death | 75 µM | 40 µM | fewer clearly luteinized CL-like structures | inhibits ovulation | caused a decrease in the number of live cells | caused a decrease in the number of live cells | at least 50% | caused a decrease in tumour burden | 5 to 50 µM | disruption of cell adhesion is observed | decreases human cancer-associated fibroblast (CAF010415) viability

Reference: patent US10647672B2, “Modulators of cell adhesion, methods and compositions therefor” (Zonula Incorporated, priority 2017, dated 2020)
